{"source": "patent US20240366648A1", "about": "“NAD-AUGMENTATION THERAPY FOR PARKINSON'S DISEASE” (Vestlandets Innovasjonsselskap AS (VIS), priority 2021, published 2024)", "system": "cerebral metabolism", "experiment": "FDG-PET metabolic brain network analysis (NRRP/PDRP), phase I trial", "type": "in vivo, human", "method": "PET-MRI imaging was performed with a 3T Siemens Biograph mMR scanner, software version VE11P-SPO3. Subjects were administered 200 MBq of 18F Fluorodeoxyglucose (FDG) before being positioned in the scanner. After 31P-MRS spectra had been acquired, an 8-channel Siemens mMR Head coil was used for further MR imaging, which was performed simultaneously with FDG PET. In all subjects, PET acquisition began 25 to 30 minutes after the injection of FDG and lasted 30 minutes. The resulting emission data were reconstructed using Siemens HD-PET algorithm with Siemens HiRes Brain MRAC, with voxel size of 2.3×2.3×5.0 mm^3. PET images were anonymized and archived as DICOM files with a matrix size of 344×344×127 and an isotropic voxel size of 2.09×2.09×2.03 mm^3.\nFDG-PET scans were transferred electronically to the Center for Neurosciences at The Feinstein Institutes for Medical Research (Manhasset, NY, USA) and analyzed using automated computing pipelines implemented in MATLAB 7.5 (MathWorks, Natick, MA) using in-house Scan Analysis and Visualization (ScAnVP) software (available at http://feinsteinneuroscience.orq). Images were first pre-processed using Statistical Parametric Mapping (SPM8) software (http://fil.ion.ucl.ac.uk/spm; Wellcome Centre for Human Neuroimaging, London, UK). Of the 30 participants, the baseline scan of one NR subject was excluded on technical grounds. In the remaining subjects, FDG-PET scans acquired at visit 1 and visit 2 were aligned to produce a mean image, which was spatially normalized in standard Montreal Neurological Institute (MNI) anatomic space along with the individual scans from each time point. The normalized images were then smoothed with a 10-mm Gaussian filter in three dimensions to enhance the signal to noise ratio.\nFor the PET-analyses, the subjects in the NR group were classified based on their cerebral NAD-response, measured by 31P-MRS. Subjects showing increased cerebral NAD levels at visit 2 were termed “MRS-responders,” whereas subjects showing no increase in cerebral NAD were termed “MRS non-responders”.\nTo identify an NR-related metabolic pattern (NRRP), we analyzed paired metabolic scan data from the 10 MRS responders in the NR group (ATP-beta; NAD-total; ATP-alpha; ATP-gamma; PCr (Phosphocreatine); MP (membrane phospholipids); GPC (glycerophosphocholine); GPE (glycerophosphoethanolamine); Pi (inorganic phosphate); Pc (phosphocholine); PE (phosphoethanolamine); Total NAD/PCr; Total NAD/ATP-alpha) using ordinal trends/canonical variates analysis (OrT/CVA), a supervised form of principal component analysis (PCA) (Habeck C, Krakauer J W, Ghez C, Sackeim H A, Eidelberg D, Stern Y et al. A new approach to spatial covariance modeling of functional brain imaging data: ordinal trend analysis. Neural computation 2005; 17: 1602-1645).\nThis multivariate approach is designed to detect and quantify regional covariance patterns (i.e., metabolic networks) for which expression values (i.e., subject scores) increase or decrease with treatment in all or most of the subjects (Niethammer M, Tang C C, Vo A, Nguyen N, Spetsieris P, Dhawan V et al. Gene therapy reduces Parkinson's disease symptoms by reorganizing functional brain connectivity. Science translational medicine 2018; 10; Ko J H, Feigin A, Mattis P J, Tang C C, Ma Y, Dhawan V et al. Network modulation following sham surgery in Parkinson's disease. The Journal of clinical investigation 2014; 124: 3656-3666). […] Likewise, the reliability of the voxel loadings (i.e., region weights) on the resulting network topography was assessed using bootstrap resampling procedures (Mure H, Hirano S, Tang C C, Isaias I U, Antonini A, Ma Y et al. Parkinson's disease tremor—related metabolic network: characterization, progression, and treatment effects. Neuroimage 2011; 54: 1244-1253; Habeck C, Stern Y. Multivariate data analysis for neuroimaging data: overview and application to Alzheimer's disease. Cell biochemistry and biophysics 2010; 58: 53-67). […]", "data": [{"molecule": "NC(=O)c1ccc[n+]([C@@H]2O[C@H](CO)[C@@H](O)[C@H]2O)c1", "note": "[NR, nicotinamide riboside]", "values": [{"measurement": "NR-related metabolic pattern (NRRP) topography", "setting": "10 MRS responders, OrT/CVA, PC1", "value": "bilateral metabolic reductions in the caudate and putamen, extending into the adjacent globus pallidus, and in the thalamus"}, {"measurement": "Zmax, reduced metabolic activity as part of the NRRP network", "setting": "Anterior Cingulate (left), BA 32, MNI −4,44,18", "value": 2.2}, {"measurement": "Zmax, reduced metabolic activity as part of the NRRP network", "setting": "Anterior Cingulate (right), BA 24, MNI 4,8,48", "value": 2.3}, {"measurement": "Zmax, reduced metabolic activity as part of the NRRP network", "setting": "Anterior Cingulate (right), BA 32, MNI 4,46,−8", "value": 2.6}, {"measurement": "Zmax, reduced metabolic activity as part of the NRRP network", "setting": "Lentiform Nucleus (left), Putamen, MNI −20,10,−8", "value": 3.5}, {"measurement": "Zmax, reduced metabolic activity as part of the NRRP network", "setting": "Lentiform Nucleus (left), Putamen, MNI −28,−2,−2", "value": 3.3}, {"measurement": "Zmax, reduced metabolic activity as part of the NRRP network", "setting": "Lentiform Nucleus (right), Putamen, MNI 22,10,−8", "value": 3.9}, {"measurement": "subjects with increased NRRP expression", "setting": "MRS responders, p=0.018 permutation test", "value": "8 of 10"}, {"measurement": "Zmax, reduced metabolic activity as part of the NRRP network", "setting": "Middle Frontal Gyrus (left), BA 8, MNI −26,30,42", "value": 1.9}, {"measurement": "ordinal trend in NRRP expression", "setting": "NR group as a whole, p=0.027 permutation test", "value": "remained significant"}, {"measurement": "correlation (r) of changes in NRRP expression with changes in UPDRS motor ratings, after excluding one data point", "setting": "NR group, excluding greatest increase in UPDRS motor score, p=0.048", "value": "−0.556"}, {"measurement": "correlation (r) of changes in NRRP expression with changes in UPDRS motor ratings", "setting": "NR group, p=0.026", "value": "−0.59"}, {"measurement": "correlation of PDRP changes with clinical outcome", "setting": "NR group, p=0.73", "value": "no correlation"}, {"measurement": "Zmax, reduced metabolic activity as part of the NRRP network", "setting": "Posterior Cingulate (bilateral), BA 31, MNI 0,−30,36", "value": 3.5}, {"measurement": "Zmax, reduced metabolic activity as part of the NRRP network", "setting": "Precuneus (left), BA 7, MNI −6,−72,40", "value": 2.6}, {"measurement": "Zmax, reduced metabolic activity as part of the NRRP network", "setting": "Prefrontal Cortex (right), BA 9, MNI 44,16,30", "value": 3.0}, {"measurement": "Zmax, reduced metabolic activity as part of the NRRP network", "setting": "Superior Frontal Gyrus (left), BA 9, MNI −32,44,28", "value": 2.5}, {"measurement": "Zmax, reduced metabolic activity as part of the NRRP network", "setting": "Superior Frontal Gyrus (left), BA 10, MNI −28,56,6", "value": 2.5}, {"measurement": "Zmax, reduced metabolic activity as part of the NRRP network", "setting": "Thalamus (left), Anterior, MNI −10,−22,4", "value": 2.5}, {"measurement": "Zmax, reduced metabolic activity as part of the NRRP network", "setting": "Thalamus (right), Medial Dorsal, MNI 8,−18,4", "value": 3.0}]}]}
